Results taken from US20230295157A1, “3-(1H-IMIDAZOL-2-YL)-2,3,8,8A-TETRAHYDROINDOLIZIN-5(1H)-ONE DERIVATIVES USEFUL AS FACTOR XIA INHIBITORS” (JANSSEN PHARMACEUTICA NV, priority 2020, published 2023).

How the values were obtained:
[1] = molecular target: Factor XIa (Homo sapiens (Human), UniProt P03951); experiment: Factor XIa inhibition assay (FLINT) utilizing a fluorophore-quencher pair peptide substrate; type: biochemical; conditions: 30 min preincubation, kinetic reads over 30 min, 5Fam-KLTRAETV-K5Tamra substrate 15 μM; read-out: FXIa Kin Inh IC50
Sequence of Factor XIa (P03951 388-625): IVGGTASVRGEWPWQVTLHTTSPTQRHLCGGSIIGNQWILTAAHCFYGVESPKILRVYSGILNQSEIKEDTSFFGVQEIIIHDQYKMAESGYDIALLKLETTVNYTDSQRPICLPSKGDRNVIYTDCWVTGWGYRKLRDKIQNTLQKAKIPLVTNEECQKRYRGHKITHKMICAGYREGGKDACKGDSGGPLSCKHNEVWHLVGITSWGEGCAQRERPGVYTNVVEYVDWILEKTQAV
Sequence of Factor XIa (P03951 19-387 partner): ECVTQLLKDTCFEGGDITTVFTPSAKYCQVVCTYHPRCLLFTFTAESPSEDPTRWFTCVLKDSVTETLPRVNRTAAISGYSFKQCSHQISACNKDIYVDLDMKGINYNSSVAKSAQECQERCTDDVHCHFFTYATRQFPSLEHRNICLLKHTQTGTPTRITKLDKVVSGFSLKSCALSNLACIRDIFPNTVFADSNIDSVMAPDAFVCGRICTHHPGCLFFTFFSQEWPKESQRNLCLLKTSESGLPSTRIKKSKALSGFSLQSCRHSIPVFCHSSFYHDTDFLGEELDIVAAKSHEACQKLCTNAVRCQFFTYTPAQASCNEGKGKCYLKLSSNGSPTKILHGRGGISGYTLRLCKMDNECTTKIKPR
Summary of the method: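 FXIa ([…]) preincubated 30 min with compound (11-point 3-fold dilution, top 100 nM, 2% DMSO), then 15 μM quenched FXI Arg146-based peptide added; Tris pH 7.5, CaCl2, BSA, CHAPS. Fluorescence 485/520 nm read kinetically every 5 min over 30 min at RT; IC50 by 4-parameter fit.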

[2] = molecular target: human plasma kallikrein (Homo sapiens (Human), UniProt P03952); experiment: Kallikrein inhibition assay (FLINT) utilizing a quenched AMC peptide substrate; type: biochemical; conditions: 30 min preincubation, kinetic reads over 30 min, Z-Gly-Pro-Arg-AMC substrate 50 μM; read-out: Kallikrein Kin Inh IC50
Sequence of human plasma kallikrein (P03952 391-638): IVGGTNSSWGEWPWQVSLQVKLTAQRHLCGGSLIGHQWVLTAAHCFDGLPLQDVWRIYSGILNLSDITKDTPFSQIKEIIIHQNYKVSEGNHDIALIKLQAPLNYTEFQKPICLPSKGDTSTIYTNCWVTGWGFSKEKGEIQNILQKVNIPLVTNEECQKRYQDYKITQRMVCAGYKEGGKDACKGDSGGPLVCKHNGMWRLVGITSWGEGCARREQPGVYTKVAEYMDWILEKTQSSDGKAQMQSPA
Sequence of human plasma kallikrein (P03952 20-390 partner): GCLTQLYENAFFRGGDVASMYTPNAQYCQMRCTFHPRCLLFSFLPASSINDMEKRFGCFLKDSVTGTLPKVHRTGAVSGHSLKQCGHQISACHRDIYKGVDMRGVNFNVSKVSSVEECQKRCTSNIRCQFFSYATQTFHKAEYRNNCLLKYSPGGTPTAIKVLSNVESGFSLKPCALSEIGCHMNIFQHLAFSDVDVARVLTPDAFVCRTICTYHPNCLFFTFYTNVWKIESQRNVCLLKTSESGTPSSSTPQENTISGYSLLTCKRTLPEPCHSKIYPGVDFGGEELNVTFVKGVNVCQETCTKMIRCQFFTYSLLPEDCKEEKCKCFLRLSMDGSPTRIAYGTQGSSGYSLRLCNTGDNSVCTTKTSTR
Summary of the method: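 Fluorogenic Z-Gly-Pro-Arg-AMC cleavage (50 μM substrate, 2 nM kallikrein, Tris pH 7.5, CaCl2, BSA, CHAPS, 2% DMSO) read kinetically at 340/440 nm for 30 min after 30-min compound pre-incubation. Compounds in 11-point 3-fold series from 1 μM; percent inhibition fitted to four-parameter equation for IC50.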

SMILES | IC50 [1] [nM] | IC50 [2] [nM]
CC(C)[C@H](N)C(=O)OCc1nccc(-c2cnc([C@@H]3CC[C@@H]4CC(c5c(-n6cnnn6)ccc(Cl)c5F)=CC(=O)N43)[nH]2)c1F [Example 75, [4-[2-[(3S,8aR)-7-[3-chloro-2-fluoro-6-(tetrazol-1-yl)phenyl]-5-oxo-2,3,8,8a-tetrahydro-1H-indolizin-3-yl]-1H-imidazol-5-yl]-3-fluoro-2-pyridyl]methyl (2S)-2-amino-3-methyl-butanoate] | 4.3 | 38.3
CC(C)(CO)Nc1nccc(-c2cnc([C@@H]3CC[C@@H]4CC(c5cc(Cl)ccc5-n5cnnn5)=CC(=O)N43)[nH]2)c1F [Example 79, (3S,8aR)-7-[5-chloro-2-(tetrazol-1-yl)phenyl]-3-[5-[3-fluoro-2-[(2-hydroxy-1,1-dimethyl-ethyl)amino]-4-pyridyl]-1H-imidazol-2-yl]-2,3,8,8a-tetrahydro-1H-indolizin-5-one] | 7.5 | 12.2
O=C1C=C(c2cc(Cl)ccc2-n2cnnn2)C[C@H]2CC[C@@H](c3nc(F)c(-c4ccnc(CO)c4F)[nH]3)N12 [Example 80, (3S,8aR)-7-[5-chloro-2-(tetrazol-1-yl)phenyl]-3-[4-fluoro-5-[3-fluoro-2-(hydroxymethyl)-4-pyridyl]-1H-imidazol-2-yl]-2,3,8,8a-tetrahydro-1H-indolizin-5-one] | 1.3 | 11.2
O=C1CCc2cc(-c3[nH]c([C@@H]4CC[C@@H]5CC(c6cc(Cl)ccc6-n6cc(C(F)(F)F)nn6)=CC(=O)N54)nc3F)ccc2N1 [Example 81, 6-[2-[(3S,8aR)-7-[5-chloro-2-[4-(trifluoromethyl)triazol-1-yl]phenyl]-5-oxo-2,3,8,8a-tetrahydro-1H-indolizin-3-yl]-4-fluoro-1H-imidazol-5-yl]-3,4-dihydro-1H-quinolin-2-one] | 0.7 | 1.8
O=C1C=C(c2cc(Cl)ccc2-n2cnnn2)C[C@H]2CC[C@@H](c3ncc(-c4ccc(NC56CC(C5)C6)nc4F)[nH]3)N12 [Example 83] | 17.4 | 57.5
CC(C)(O)CNc1nccc(-c2[nH]c([C@@H]3CC[C@@H]4CC(c5cc(Cl)ccc5-n5cnnn5)=CC(=O)N43)nc2F)c1F [Example 84, (3S,8aR)-7-[5-chloro-2-(tetrazol-1-yl)phenyl]-3-[4-fluoro-5-[3-fluoro-2-[(2-hydroxy-2-methyl-propyl)amino]-4-pyridyl]-1H-imidazol-2-yl]-2,3,8,8a-tetrahydro-1H-indolizin-5-one] | 0.3 | 3
O=C1C=C(c2c(-n3cnnn3)ccc(Cl)c2F)C[C@H]2CC[C@@H](c3ncc(-c4ccnc(-n5ccnn5)c4)[nH]3)N12 [Example 85, (3S,8aR)-7-[3-chloro-2-fluoro-6-(tetrazol-1-yl)phenyl]-3-[5-[2-(triazol-1-yl)-4-pyridyl]-1H-imidazol-2-yl]-2,3,8,8a-tetrahydro-1H-indolizin-5-one] | 11.1 | 8.9
O=C1C=C(c2c(-n3cnnn3)ccc(Cl)c2F)C[C@H]2CC[C@@H](c3ncc(-c4ccnc(-n5nccn5)c4)[nH]3)N12 [Example 86, (3S,8aR)-7-[3-chloro-2-fluoro-6-(tetrazol-1-yl)phenyl]-3-[5-[2-(triazol-2-yl)-4-pyridyl]-1H-imidazol-2-yl]-2,3,8,8a-tetrahydro-1H-indolizin-5-one] | 4.6 | 3.2
O=C1C=C(c2c(-n3cnnn3)ccc(Cl)c2F)C[C@H]2CC[C@@H](c3nc(F)c(-c4ccnc(-n5nccn5)c4)[nH]3)N12 [Example 87, (3S,8aR)-7-[3-chloro-2-fluoro-6-(tetrazol-1-yl)phenyl]-3-[4-fluoro-5-[2-(triazol-2-yl)-4-pyridyl]-1H-imidazol-2-yl]-2,3,8,8a-tetrahydro-1H-indolizin-5-one] | 0.9 | 1.6
O=C1C=C(c2c(-n3cnnn3)ccc(Cl)c2F)C[C@H]2CC[C@@H](c3nc(F)c(-c4ccnc(-n5cccn5)c4)[nH]3)N12 [Example 88, (3S,8aR)-7-[3-chloro-2-fluoro-6-(tetrazol-1-yl)phenyl]-3-[4 fluoro-5-(2-pyrazol-1-yl-4-pyridyl)-1H-imidazol-2-yl]-2,3,8,8a-tetrahydro-1H-indolizin-5-one] | 1.5 | 1.9
CC(C)(CO)Nc1nccc(-c2cnc([C@@H]3CC[C@@H]4CC(c5c(-n6cnnn6)ccc(Cl)c5F)=CC(=O)N43)[nH]2)c1F [Example 89, (3S,8aR)-7-[3-chloro-2-fluoro-6-(tetrazol-1-yl)phenyl]-3-[5-[3-fluoro-2-[(2-hydroxy-1,1-dimethyl-ethyl)amino]-4-pyridyl]-1H-imidazol-2-yl]-2,3,8,8a-tetrahydro-1H-indolizin-5-one] | 5.8 | 7.4
O=C1C=C(c2c(-n3cnnn3)ccc(Cl)c2F)C[C@H]2CC[C@@H](c3ncc(-c4ccnc(-n5cccn5)c4)[nH]3)N12 [Example 93, (3S,8aR)-3-(5-(2-(1H-pyrazol-1-yl)pyridin-4-yl)-1H-imidazol-2-yl)-7-(3-chloro-2-fluoro-6-(1H-tetrazol-1-yl)phenyl)-2,3,8,8a-tetrahydroindolizin-5(1H)-one] | 10.3 | 3.1
O=C(c1nccc(-c2cnc([C@@H]3CC[C@@H]4CC(c5c(-n6cnnn6)ccc(Cl)c5F)=CC(=O)N43)[nH]2)c1F)N1CC(F)(F)C1 [Example 94, (3S,8aR)-7-(3-Chloro-2-fluoro-6-(1H-tetrazol-1-yl)phenyl)-3-(5-(2-(3,3-difluoroazetidine-1-carbonyl)-3-fluoropyridin-4-yl)-1H-imidazol-2-yl)-2,3,8,8a-tetrahydroindolizin-5(1H)-one] | 12.3 | 122
CC1(O)CCc2c(-c3cnc(C4CCC5CC(c6c(-n7cnnn7)ccc(Cl)c6F)=CC(=O)N54)[nH]3)ccnc21 (stereo not shown) [Example 95, 7-(3-Chloro-2-fluoro-6-(1H-tetrazol-1-yl)phenyl)-3-(5-(7-hydroxy-7-methyl-6,7-dihydro-5H-cyclopenta[b]pyridin-4-yl)-1H-imidazol-2-yl)-2,3,8,8a-tetrahydroindolizin-5(1H)-one] | 3.5 | 23.9
O=C1C=C(c2cc(Cl)ccc2-n2cnnn2)C[C@H]2CC[C@@H](c3ncc(-c4ccnc(NC56CC(C5)C6)c4F)[nH]3)N12 [Example 96, (3S,8aR)-3-(5-(2-(Bicyclo[1.1.1]pentan-1-ylamino)-3-fluoropyridin-4-yl)-1H-imidazol-2-yl)-7-(5-chloro-2-(1H-tetrazol-1-yl)phenyl)-2,3,8,8a-tetrahydroindolizin-5(1H)-one] | 5.4 | 2.6
O=C1CCc2cc(-c3cnc([C@@H]4CC[C@@H]5CC(c6cc(Cl)ccc6-n6cc(C(F)(F)F)nn6)=CC(=O)N54)[nH]3)ccc2N1 [Example 97, 6-(2-((3S,8aR)-7-(5-chloro-2-(4-(trifluoromethyl)-1H-1,2,3-triazol-1-yl)phenyl)-5-oxo-1,2,3,5,8,8a-hexahydroindolizin-3-yl)-1H-imidazol-5-yl)-3,4-dihydroquinolin-2(1H)-one] | 1.6 | 4.6
COC(=O)Nc1cc(-c2cnc([C@@H]3CC[C@@H]4CC(c5c(-n6cnnn6)ccc(Cl)c5F)=CC(=O)N43)[nH]2)ccn1 [Example 99, Methyl (4-(2-((3S,8aR)-7-(3-chloro-2-fluoro-6-(1H-tetrazol-1-yl)phenyl)-5-oxo-1,2,3,5,8,8a-hexahydroindolizin-3-yl)-1H-imidazol-5-yl)pyridin-2-yl)carbamate] | 2.3 | 3.2
